Our source for the Kd values is article PMC5114558, “Reader domain specificity and lysine demethylase-4 family function” (Nature Communications, 2016).

The target of one test is T1, KDM4B S965D (Homo sapiens, UniProt O94953, S965D).
T1 construct: DNA encoding DTDs (KDM4A 895–1011aa, KDM4B 917–1031aa and KDM4C 877–991aa); (His)6-HaloTag (pFN29) or (His)6 (pET28b); made in house; host or cells: Escherichia coli BL21 (DE3)
T1 sequence (O94953 917-1031 S965D): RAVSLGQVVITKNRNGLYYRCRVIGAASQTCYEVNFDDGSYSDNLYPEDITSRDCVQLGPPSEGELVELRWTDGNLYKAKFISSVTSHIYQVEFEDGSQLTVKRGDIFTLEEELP
The experiment in a line: FP binding, KDM4B-DTD S965D. Particulars: pH 7.4, Fig. 4i (± s.d., three replicates) and text. From the text:
(§1) KDM4 protein sequences used in this study correspond to Uniprot ID: O75164 (human KDM4A, isoform 1), O94953 (human KDM4B, isoform1) and Q9H3R0 (human KDM4C, isoform1). Plasmid encoding KDM4A DTD was kindly provided by R-M Xu (Chinese Academy of Sciences). Complementary DNA encoding human KDM4B-DTD was synthesized (Integrated DNA Technologies). Plasmid containing cDNA of full-length KDM4C (clone ID: HsCD00341594) was obtained from Harvard Plasmid Repository. DNA encoding DTDs (KDM4A 895–1011aa, KDM4B 917–1031aa and KDM4C 877–991aa) were cloned into pFN29 (Promega) with N-terminal (His)6-HaloTag or pET28b with N-terminal (His)6 Tag using In-Fusion HD cloning kit (Clontech). […]
(§2) Peptide sequences are given in Supplementary Table 1. […] Polarization at each concentration was measured as triplicates in 384-well polystyrene black microplates (Thermo Fisher Scientific 262260) by Biotek Synergy H4 multimode plate reader (light source: xenon flash, offset from top: 7 mm, sensitivity: 60%, excitation: 485/20 nm, emission: 528/20 nm, both parallel and perpendicular, normal read speed). Fraction bound (Fb) at each concentration was calculated based on the corresponding polarization values (P): Fbc=(Pc−Pmin)/(Pmax−Pmin), where Pmin is the polarization value of no-protein control and Pmax is the polarization value of the saturation value for that peptide. […]

Test [1] addresses T2, KDM4A DTD (human KDM4A double tudor domain, 895–1011aa) (Homo sapiens, UniProt O75164).
T2 construct: DNA encoding DTDs (KDM4A 895–1011aa, KDM4B 917–1031aa and KDM4C 877–991aa); (His)6-HaloTag (pFN29) or (His)6 (pET28b); made in house; host or cells: Escherichia coli BL21 (DE3)
T2 sequence (O75164 895-1011): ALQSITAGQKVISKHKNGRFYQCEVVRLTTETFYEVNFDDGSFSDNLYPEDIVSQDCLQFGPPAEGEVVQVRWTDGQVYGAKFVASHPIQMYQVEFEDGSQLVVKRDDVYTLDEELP
The experiment in a line: fluorescence polarization (FP) binding, KDM4A-DTD wild-type. Conditions: matrix Fig. 1d and Fig. 3c, pH 7.4, read-out: binding affinity (Kd), KDM4A DTD wild-type. From the text: (§3) KDM4 protein sequences used in this study correspond to Uniprot ID: O75164 (human KDM4A, isoform 1), O94953 (human KDM4B, isoform1) and Q9H3R0 (human KDM4C, isoform1). Plasmid encoding KDM4A DTD was kindly provided by R-M Xu (Chinese Academy of Sciences). Complementary DNA encoding human KDM4B-DTD was synthesized (Integrated DNA Technologies). Plasmid containing cDNA of full-length KDM4C (clone ID: HsCD00341594) was obtained from Harvard Plasmid Repository. DNA encoding DTDs (KDM4A 895–1011aa, KDM4B 917–1031aa and KDM4C 877–991aa) were cloned into pFN29 (Promega) with N-terminal (His)6-HaloTag or pET28b with N-terminal (His)6 Tag using In-Fusion HD cloning kit (Clontech). Plasmids encoding Xenopus laevis core histones were a generous gift of K. Luger (University of Colorado-Boulder). Site-directed mutagenesis was performed with Q5 Site-Directed Mutagenesis Kit (New England Biolabs).
(§4) Peptide sequences are given in Supplementary Table 1. […] A no-protein control with only peptide probe was included. Polarization at each concentration was measured as triplicates in 384-well polystyrene black microplates (Thermo Fisher Scientific 262260) by Biotek Synergy H4 multimode plate reader (light source: xenon flash, offset from top: 7 mm, sensitivity: 60%, excitation: 485/20 nm, emission: 528/20 nm, both parallel and perpendicular, normal read speed). Fraction bound (Fb) at each concentration was calculated based on the corresponding polarization values (P): Fbc=(Pc−Pmin)/(Pmax−Pmin), where Pmin is the polarization value of no-protein control and Pmax is the polarization value of the saturation value for that peptide. Dissociation constants (Kd) were derived by KaleidaGraph, Synergy Software (version 4.1.3) using the following equation: Fb=[protein]/([protein]+Kd).
In general terms: In fluorescence polarisation assays a small probe gives low polarisation when free and higher when bound to something large.

The target of the next test is T3, KDM4B N960A (Homo sapiens, UniProt O94953, N960A).
T3 construct: DNA encoding DTDs (KDM4A 895–1011aa, KDM4B 917–1031aa and KDM4C 877–991aa); (His)6-HaloTag (pFN29) or (His)6 (pET28b); made in house; host or cells: Escherichia coli BL21 (DE3)
T3 sequence (O94953 917-1031 N960A): T1 sequence (O94953 917-1031 S965D) with N44A, D49S
The test is described as follows: FP binding, KDM4B-DTD N960A. Particulars: pH 7.4, Fig. 4g (± s.d., three replicates) and text.
From the text: as §1, §2

Test [2] addresses T4, KDM4B DTD (human KDM4B double tudor domain, 917–1031aa) (Homo sapiens, UniProt O94953).
T4 construct: DNA encoding DTDs (KDM4A 895–1011aa, KDM4B 917–1031aa and KDM4C 877–991aa); (His)6-HaloTag (pFN29) or (His)6 (pET28b); made in house; host or cells: Escherichia coli BL21 (DE3)
T4 sequence (O94953 917-1031): T1 sequence (O94953 917-1031 S965D) with D49S
The experiment in a line: fluorescence polarization (FP) binding, KDM4B-DTD wild-type. Conditions: matrix Fig. 1d, values given in mM, pH 7.4, read-out: binding affinity (Kd), KDM4B DTD.
From the text: as §3, §4

Structures are written as SMILES. Positions count from the first letter of the chain named.

With `C[C@H](N)C(=O)N[C@@H](CCCNC(=N)N)C(=O)N[C@H](C(=O)N[C@@H](CCCC[N+](C)(C)C)C(=O)N[C@@H](CCC(N)=O)C(=O)N[C@H](C(=O)N[C@@H](C)C(=O)N[C@@H](CCCNC(=N)N)C(=O)N[C@@H](CCCCN)C(=O)N[C@@H](CO)C(=O)N[C@H](C(=O)NCC(=O)NCC(=O)N[C@@H](CCCCNC(=O)c1ccc2c(c1)C(=O)OC21c2ccc(O)cc2Oc2cc(O)ccc21)C(=O)O)[C@@H](C)O)[C@@H](C)O)[C@@H](C)O` [H3K4me3], the Kd – broadly, the concentration at which binding is half-saturated – was 199 ± 16.1 µM at KDM4B S965D, 2.7 µM in test [1], 304 ± 35.8 µM on KDM4B N960A and > 3 mM in test [2].
